Experimental data reported in patent US8952024B2, “Herbicidal pyrimidone derivatives” (E I du Pont de Nemours and Company, priority 2009, dated 2015).

Tests used:
Test in all cases: Test B pre-/postemergence plant response
Assay type in all cases: in vivo
corn (Zea mays) = test system: corn (Zea mays)
Outline: (§1)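 Greenhouse herbicide screen. Pre- and postemergence (1- to 4-leaf) spray of compound in solvent/surfactant mixture; loam–sand soil for pre, peat/vermiculite medium for post. Visual control rating 0–100 at 13 to 15 days after treatment.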

soybean (Glycine max) = test system: soybean (Glycine max)
Outline: as §1

[1] = test system: green foxtail (Setaria viridis)
Outline: as §1

[2] = test system: johnsongrass (Sorghum halepense)
Outline: as §1

[3] = test system: morningglory (Ipomoea coccinea)
Outline: as §1

[4] = test system: Italian ryegrass (Lolium multiflorum)
Outline: as §1

[5] = test system: large crabgrass (Digitaria sanguinalis)
Outline: as §1

[6] = test system: giant foxtail (Setaria faberii)
Outline: as §1

[7] = test system: ragweed (common ragweed, Ambrosia elatior)
Outline: as §1

[8] = test system: cocklebur (Xanthium strumarium)
Outline: as §1

[9] = test system: velvetleaf (Abutilon theophrasti)
Outline: as §1

kochia (Kochia scoparia) = test system: kochia (Kochia scoparia)
Outline: as §1

[10] = test system: goosegrass (Eleusine indica)
Outline: as §1

[11] = test system: blackgrass (Alopecurus myosuroides)
Outline: as §1

[12] = 31 g ai/ha, postemergence, scale 0 to 100, 0 is no effect, 100 is complete control
[13] = 62 g ai/ha, postemergence, 0 is no effect, 100 is complete control, 13 to 15 days
[14] = Postemergence, 125 g ai/ha, visual rating after 13 to 15 days, scale 0 (no effect) to 100 (complete control)
[15] = Postemergence, 250 g ai/ha, scale 0 to 100 (0 no effect, 100 complete control)
[16] = Preemergence, 31 g ai/ha, scale 0 to 100 (0 no effect, 100 complete control)
[17] = Preemergence, 62 g ai/ha, scale 0 to 100 (0 no effect, 100 complete control)
[18] = Preemergence, 125 g ai/ha, scale 0 to 100, 0 no effect, 100 complete control
[19] = Preemergence, 250 g ai/ha, 0 to 100 scale

Q: Which “Plant response rating, Corn” value (corn (Zea mays); [12]) does the source give for `CCCc1ncc(C(=O)C2=C(O)CCCC2=O)c(=O)n1CC1CCCO1` (centres unmarked) [Compound 74] here?
A: Its value is 0.

Q: What about the “Corn plant response rating (0 to 100 scale)” value (corn (Zea mays); [13]) of the same compound?
A: Its value is 0.

Q: And the “Plant response rating, Corn” value (corn (Zea mays); [14])?
A: Its value is 15.

Q: What about the “Plant response rating, Corn” value (corn (Zea mays); [15]) of the same compound?
A: The value was 60.

Q: And the “Plant response rating, Corn” value (corn (Zea mays); [16])?
A: The value was 0.

Q: And the “Plant response rating, Corn” value (corn (Zea mays); [17])?
A: Its value is 0.

Q: What about the “Plant response rating, Corn” value (corn (Zea mays); [18]) of the same compound?
A: The value was 0.

Q: And the “Corn plant response rating” value (corn (Zea mays); [19])?
A: The value was 0.

Q: What about the “Plant response rating, Soybean” value (soybean (Glycine max); [12]) of the same compound?
A: The value was 75.

Q: What about the “Soybean plant response rating (0 to 100 scale)” value (soybean (Glycine max); [13]) of the same compound?
A: Its value is 75.

Q: And the “Plant response rating, Soybean” value (soybean (Glycine max); [14])?
A: The value was 95.

Q: What about the “Plant response rating, Soybean” value (soybean (Glycine max); [15]) of the same compound?
A: Its value is 95.

Q: And the “Plant response rating, Foxtail, Green” value [1, 12]?
A: Its value is 20.

Q: What about the “Foxtail, Green plant response rating (0 to 100 scale)” value [1, 13] of the same compound?
A: The value was 20.

Q: What about the “Plant response rating, Foxtail, Green” value [1, 14] of the same compound?
A: Its value is 80.

Q: What about the “Plant response rating, Foxtail, Green” value [1, 15] of the same compound?
A: The value was 85.

Q: And the “Plant response rating, Foxtail, Green” value [1, 16]?
A: The value was 0.

Q: And the “Plant response rating, Foxtail, Green” value [1, 17]?
A: Its value is 0.

Q: What about the “Plant response rating, Foxtail, Green” value [1, 18] of the same compound?
A: The value was 0.

Q: And the “Foxtail, Green plant response rating” value [1, 19]?
A: Its value is 0.

Q: And the “Plant response rating, Johnsongrass” value [2, 12]?
A: The value was 0.

Q: And the “Johnsongrass plant response rating (0 to 100 scale)” value [2, 13]?
A: The value was 0.

Q: And the “Plant response rating, Johnsongrass” value [2, 14]?
A: The value was 10.

Q: And the “Plant response rating, Johnsongrass” value [2, 15]?
A: The value was 85.

Q: What about the “Plant response rating, Johnsongrass” value [2, 16] of the same compound?
A: Its value is 0.

Q: And the “Plant response rating, Johnsongrass” value [2, 17]?
A: Its value is 0.

Q: And the “Plant response rating, Johnsongrass” value [2, 18]?
A: The value was 0.

Q: What about the “Johnsongrass plant response rating” value [2, 19] of the same compound?
A: The value was 0.

Q: What about the “Plant response rating, Morningglory” value [3, 12] of the same compound?
A: The value was 60.

Q: And the “Morningglory plant response rating (0 to 100 scale)” value [3, 13]?
A: Its value is 85.

Q: What about the “Plant response rating, Morningglory” value [3, 14] of the same compound?
A: The value was 95.

Q: And the “Plant response rating, Morningglory” value [3, 15]?
A: Its value is 100.

Q: What about the “Plant response rating, Morningglory” value [3, 16] of the same compound?
A: The value was 10.

Q: What about the “Plant response rating, Morningglory” value [3, 17] of the same compound?
A: The value was 60.

Q: And the “Plant response rating, Morningglory” value [3, 18]?
A: The value was 75.

Q: What about the “Morningglory plant response rating” value [3, 19] of the same compound?
A: The value was 80.

Q: What about the “Plant response rating, Ryegrass, Italian” value [4, 12] of the same compound?
A: Its value is 5.

Q: And the “Ryegrass, Italian plant response rating (0 to 100 scale)” value [4, 13]?
A: Its value is 20.

Q: And the “Plant response rating, Ryegrass, Italian” value [4, 14]?
A: Its value is 20.

Q: And the “Plant response rating, Ryegrass, Italian” value [4, 15]?
A: The value was 35.

Q: And the “Plant response rating, Ryegrass, Italian” value [4, 16]?
A: Its value is 0.

Q: And the “Plant response rating, Ryegrass, Italian” value [4, 17]?
A: The value was 0.

Q: What about the “Plant response rating, Ryegrass, Italian” value [4, 18] of the same compound?
A: The value was 0.

Q: And the “Ryegrass, Italian plant response rating” value [4, 19]?
A: The value was 0.

Q: What about the “Plant response rating, Crabgrass, Large” value [5, 12] of the same compound?
A: Its value is 80.

Q: And the “Crabgrass, Large plant response rating (0 to 100 scale)” value [5, 13]?
A: The value was 80.

Q: And the “Plant response rating, Crabgrass, Large” value [5, 14]?
A: Its value is 95.

Q: What about the “Plant response rating, Crabgrass, Large” value [5, 15] of the same compound?
A: The value was 95.

Q: What about the “Plant response rating, Crabgrass, Large” value [5, 16] of the same compound?
A: Its value is 98.

Q: What about the “Plant response rating, Crabgrass, Large” value [5, 17] of the same compound?
A: The value was 98.

Q: What about the “Plant response rating, Crabgrass, Large” value [5, 18] of the same compound?
A: Its value is 100.

Q: And the “Crabgrass, Large plant response rating” value [5, 19]?
A: Its value is 100.

Q: And the “Plant response rating, Foxtail, Giant” value [6, 12]?
A: The value was 25.

Q: What about the “Foxtail, Giant plant response rating (0 to 100 scale)” value [6, 13] of the same compound?
A: Its value is 55.

Q: And the “Plant response rating, Foxtail, Giant” value [6, 14]?
A: The value was 70.

Q: What about the “Plant response rating, Foxtail, Giant” value [6, 15] of the same compound?
A: Its value is 85.

Q: What about the “Plant response rating, Foxtail, Giant” value [6, 16] of the same compound?
A: The value was 0.

Q: And the “Plant response rating, Foxtail, Giant” value [6, 17]?
A: Its value is 0.

Q: And the “Plant response rating, Foxtail, Giant” value [6, 18]?
A: Its value is 5.

Q: What about the “Foxtail, Giant plant response rating” value [6, 19] of the same compound?
A: Its value is 45.

Q: And the “Plant response rating, Ragweed” value [7, 12]?
A: The value was 75.

Q: What about the “Ragweed plant response rating (0 to 100 scale)” value [7, 13] of the same compound?
A: The value was 75.

Q: And the “Plant response rating, Ragweed” value [7, 14]?
A: Its value is 85.

Q: And the “Plant response rating, Ragweed” value [7, 15]?
A: Its value is 90.

Q: What about the “Plant response rating, Ragweed” value [7, 16] of the same compound?
A: The value was 10.

Q: And the “Plant response rating, Ragweed” value [7, 17]?
A: Its value is 98.

Q: What about the “Plant response rating, Ragweed” value [7, 18] of the same compound?
A: Its value is 98.

Q: And the “Ragweed plant response rating” value [7, 19]?
A: The value was 100.

Q: And the “Plant response rating, Cocklebur” value [8, 12]?
A: The value was 20.

Q: And the “Cocklebur plant response rating (0 to 100 scale)” value [8, 13]?
A: Its value is 85.

Q: And the “Plant response rating, Cocklebur” value [8, 14]?
A: Its value is 90.

Q: What about the “Plant response rating, Cocklebur” value [8, 15] of the same compound?
A: The value was 95.

Q: And the “Plant response rating, Cocklebur” value [8, 16]?
A: The value was 10.

Q: And the “Plant response rating, Cocklebur” value [8, 17]?
A: The value was 45.

Q: And the “Plant response rating, Cocklebur” value [8, 18]?
A: Its value is 70.

Q: And the “Cocklebur plant response rating” value [8, 19]?
A: Its value is 80.

Q: And the “Plant response rating, Velvetleaf” value [9, 12]?
A: The value was 98.

Q: What about the “Velvetleaf plant response rating (0 to 100 scale)” value [9, 13] of the same compound?
A: Its value is 100.

Q: What about the “Plant response rating, Velvetleaf” value [9, 14] of the same compound?
A: The value was 100.

Q: What about the “Plant response rating, Velvetleaf” value [9, 15] of the same compound?
A: Its value is 100.

Q: And the “Plant response rating, Velvetleaf” value [9, 16]?
A: The value was 98.

Q: And the “Plant response rating, Velvetleaf” value [9, 17]?
A: Its value is 100.

Q: And the “Plant response rating, Velvetleaf” value [9, 18]?
A: Its value is 100.

Q: What about the “Velvetleaf plant response rating” value [9, 19] of the same compound?
A: The value was 100.

Q: What about the “Plant response rating, Kochia” value (kochia (Kochia scoparia); [12]) of the same compound?
A: The value was 75.

Q: What about the “Kochia plant response rating (0 to 100 scale)” value (kochia (Kochia scoparia); [13]) of the same compound?
A: Its value is 75.

Q: What about the “Plant response rating, Kochia” value (kochia (Kochia scoparia); [14]) of the same compound?
A: The value was 95.

Q: What about the “Plant response rating, Kochia” value (kochia (Kochia scoparia); [15]) of the same compound?
A: The value was 98.

Q: What about the “Plant response rating, Kochia” value (kochia (Kochia scoparia); [16]) of the same compound?
A: Its value is 80.

Q: What about the “Plant response rating, Kochia” value (kochia (Kochia scoparia); [18]) of the same compound?
A: Its value is 85.

Q: What about the “Kochia plant response rating” value (kochia (Kochia scoparia); [19]) of the same compound?
A: The value was 85.

Q: What about the “Plant response rating, Goosegrass” value [10, 12] of the same compound?
A: Its value is 65.

Q: What about the “Goosegrass plant response rating (0 to 100 scale)” value [10, 13] of the same compound?
A: Its value is 75.

Q: And the “Plant response rating, Goosegrass” value [10, 14]?
A: The value was 80.

Q: What about the “Plant response rating, Goosegrass” value [10, 15] of the same compound?
A: The value was 85.

Q: And the “Plant response rating, Goosegrass” value [10, 16]?
A: The value was 98.

Q: What about the “Plant response rating, Goosegrass” value [10, 17] of the same compound?
A: The value was 98.

Q: What about the “Plant response rating, Goosegrass” value [10, 18] of the same compound?
A: Its value is 100.

Q: What about the “Goosegrass plant response rating” value [10, 19] of the same compound?
A: The value was 100.

Q: What about the “Plant response rating, Blackgrass” value [11, 12] of the same compound?
A: Its value is 0.

Q: And the “Blackgrass plant response rating (0 to 100 scale)” value [11, 13]?
A: The value was 0.

Q: And the “Plant response rating, Blackgrass” value [11, 14]?
A: Its value is 25.

Q: And the “Plant response rating, Blackgrass” value [11, 15]?
A: Its value is 45.

Q: And the “Plant response rating, Blackgrass” value [11, 16]?
A: Its value is 0.

Q: What about the “Plant response rating, Blackgrass” value [11, 17] of the same compound?
A: Its value is 0.

Q: What about the “Plant response rating, Blackgrass” value [11, 18] of the same compound?
A: Its value is 0.

Q: What about the “Blackgrass plant response rating” value [11, 19] of the same compound?
A: Its value is 10.
